Results: ChEMBL document CHEMBL1201862, “PubChem BioAssay data set” (2004)
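Results reflect a 48-hour exposure of cells in 96-well plates to compound at five concentrations. GI50: concentration for 50% inhibition of growth.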 Activity calls are given as the source filed them. No stated cut-off is given here; in the data, active = GI50 up to about 1.1 µM and inactive = higher.

Legend:
Test in all cases: growth of human tumour cells (NCI), 48 h
EKVX = tested on: EKVX
HCT-116 = tested on: HCT-116
HCT-15 = tested on: HCT-15
HT-29 = tested on: HT-29
IGROV-1 = tested on: IGROV-1
KM12 = tested on: KM12
LOX IMVI = tested on: LOX IMVI
MCF7 = tested on: MCF7
MOLT-4 = tested on: MOLT-4
Malme-3M = tested on: Malme-3M
NCI-H23 = tested on: NCI-H23
NCI-H460 = tested on: NCI-H460
NCI/ADR-RES = tested on: NCI/ADR-RES
OVCAR-3 = tested on: OVCAR-3
RPMI-8226 = tested on: RPMI-8226
SF-539 = tested on: SF-539
SK-MEL-2 = tested on: SK-MEL-2
SK-MEL-5 = tested on: SK-MEL-5
TK-10 = tested on: TK-10
UACC-62 = tested on: UACC-62

Structure (SMILES) | GI50 (EKVX) | GI50 (HCT-116) | GI50 (HCT-15) [µM] | GI50 (HT-29) | GI50 (IGROV-1) | GI50 (KM12) | GI50 (LOX IMVI) | GI50 (MCF7) | GI50 (MOLT-4) | GI50 (Malme-3M) | GI50 (NCI-H23) | GI50 (NCI-H460) | GI50 (NCI/ADR-RES) | GI50 (OVCAR-3) | GI50 (RPMI-8226) | GI50 (SF-539) | GI50 (SK-MEL-2) | GI50 (SK-MEL-5) | GI50 (TK-10) | GI50 (UACC-62)
O=C(O)/C(Cc1ccnc2ccccc12)=N\O | > 100 µM (inactive) | > 100 µM (inactive) | > 100 | > 100 µM (inactive) | > 100 µM (inactive) | > 100 µM (inactive) | > 100 µM (inactive) | > 100 µM (inactive) | > 100 µM (inactive) | > 100 µM (inactive) | > 100 µM (inactive) | > 100 µM (inactive) | > 100 µM (inactive) | > 100 µM (inactive) | > 100 µM (inactive) | > 100 µM (inactive) | > 100 µM (inactive) | > 100 µM (inactive) | > 100 µM (inactive) | > 100 µM (inactive)
C=CCC(O[Si](C)(C)C(C)(C)C)c1cc(O[Si](C)(C)C(C)(C)C)ccc1OC (stereo not drawn) | > 100 µM (inactive) | > 80.7 µM (inactive) | > 74.5 | > 100 µM (inactive) | > 100 µM (inactive) | > 100 µM (inactive) | > 94.2 µM (inactive) | 51.1 µM (inactive) | > 70.8 µM (inactive) | > 100 µM (inactive) | > 100 µM (inactive) | > 70 µM (inactive) | > 64.7 µM (inactive) | > 54.6 µM (inactive) | > 100 µM (inactive) | 99.3 µM (inactive) | > 75.5 µM (inactive) | > 61.1 µM (inactive) |  | > 81.3 µM (inactive)
COC(=O)CCC(C)C1CCC2C3CCC4CC5CCC4(C)C3(O5)C(Br)C(Br)C12C (stereo not drawn) | > 100 µM (inactive) | 78.9 µM (inactive) | > 100 | 56.2 µM (inactive) | > 100 µM (inactive) | > 100 µM (inactive) | > 100 µM (inactive) | > 100 µM (inactive) | > 100 µM (inactive) | > 100 µM (inactive) | > 100 µM (inactive) | > 100 µM (inactive) | > 100 µM (inactive) | > 100 µM (inactive) | 67.6 µM (inactive) | 85.1 µM (inactive) | > 100 µM (inactive) | 72.9 µM (inactive) | > 100 µM (inactive) | > 100 µM (inactive)
CC(=O)OC1CC2(O)C(CCC3(C)C(c4ccc(=O)oc4)CCC32O)C2(C)C1=CC(O)C1OC12 (stereo not drawn) | 0.042 µM (active) | 0.0296 µM (active) | 0.053 | 0.135 µM (active) | 0.0653 µM (active) | 0.067 µM (active) | 0.0687 µM (active) | 0.0552 µM (active) | 0.0281 µM (active) | 0.0419 µM (active) | 0.0275 µM (active) | 0.0279 µM (active) | 0.0378 µM (active) | 0.0316 µM (active) | 0.0675 µM (active) | 0.0375 µM (active) | 0.0724 µM (active) | 0.025 µM (active) |  | 0.0457 µM (active)
C=CCc1cccc(/C=N\N/C(N)=N/O)c1O | 3.06 µM (inactive) | 5.33 µM (inactive) | 2.19 | 6.59 µM (inactive) | 4.59 µM (inactive) | 4.36 µM (inactive) | 3.29 µM (inactive) | 2.56 µM (inactive) | 3.1 µM (inactive) | 9.2 µM (inactive) | 3.22 µM (inactive) | 3.2 µM (inactive) | 2.23 µM (inactive) | 2.26 µM (inactive) | 2.22 µM (inactive) | 2.64 µM (inactive) | 6.3 µM (inactive) | 3.76 µM (inactive) |  | 2.64 µM (inactive)
O=P1(c2ccccc2)Nc2ccccc2SSc2ccccc2N1 | 15.2 µM (inactive) | 16.8 µM (inactive) | 17 | 19.2 µM (inactive) | 19.7 µM (inactive) | 16.7 µM (inactive) | 16.2 µM (inactive) | 16.7 µM (inactive) | 18.7 µM (inactive) | 18.4 µM (inactive) | 16.6 µM (inactive) | 18.4 µM (inactive) | 19.9 µM (inactive) | 15.1 µM (inactive) | 18.3 µM (inactive) | 19.9 µM (inactive) | 16.7 µM (inactive) | 16.9 µM (inactive) |  | 15.6 µM (inactive)
COc1cc(CCCOC2OC(COC3OCC(O)C(O)C3O)C(O)C(O)C2O)cc2cc(-c3ccc4c(c3)OCO4)oc12 (stereo not drawn) | > 175 µM (inactive) | > 175 µM (inactive) | > 175 | > 175 µM (inactive) | > 175 µM (inactive) | > 175 µM (inactive) | > 175 µM (inactive) | > 175 µM (inactive) | > 175 µM (inactive) | > 175 µM (inactive) | > 175 µM (inactive) | > 175 µM (inactive) | > 175 µM (inactive) | > 175 µM (inactive) | > 175 µM (inactive) | > 175 µM (inactive) | > 175 µM (inactive) | > 175 µM (inactive) |  | > 175 µM (inactive)
Oc1c(CNCCCN2CCCC2)cc(Cl)c2cccnc12 | 1.75 µM (inactive) | 2.61 µM (inactive) | 2.09 | 5.3 µM (inactive) | 6.85 µM (inactive) | 4.05 µM (inactive) | 3.01 µM (inactive) | 4.56 µM (inactive) | 2.77 µM (inactive) | 5.55 µM (inactive) | 11 µM (inactive) | 2.88 µM (inactive) | 1.48 µM (inactive) | 2.14 µM (inactive) | 2.38 µM (inactive) | 2.87 µM (inactive) | 11.1 µM (inactive) | 1.36 µM (inactive) |  | 2.21 µM (inactive)
COC(=S)OC1CC(n2cnc3c(N)ncnc32)OC1CO[Si](C)(C)C(C)(C)C (stereo not drawn) |  | 16 µM (inactive) | 16.8 | 16.5 µM (inactive) | 17.6 µM (inactive) | 23.7 µM (inactive) | 39.7 µM (inactive) | 19.1 µM (inactive) | 5.24 µM (inactive) | 31.5 µM (inactive) | 14 µM (inactive) | 20.3 µM (inactive) | 22.4 µM (inactive) | 15.3 µM (inactive) | 19 µM (inactive) |  | 22.6 µM (inactive) |  | 33.3 µM (inactive) | 10.6 µM (inactive)
COc1cccc2c1C(=O)c1c(O)c3c(c(O)c1C2=O)C[C@@](O)(C(=O)CO)C[C@@H]3OC1CC(N2CCOCC2)C(O)C(C)O1 (stereo partly drawn) | 0.0159 µM (active) | 0.0025 µM (active) | 0.00315 | 0.00628 µM (active) | 0.0131 µM (active) | 0.0246 µM (active) | 0.0025 µM (active) | 0.0025 µM (active) | 0.00333 µM (active) | 0.00259 µM (active) | 0.00567 µM (active) | 0.0025 µM (active) | 0.00252 µM (active) | 0.0025 µM (active) | 0.0025 µM (active) | 0.0025 µM (active) | 0.0025 µM (active) | 0.0025 µM (active) | 0.0485 µM (active) | 
COC(=O)[C@@H]1C=C[C@H](NC(C)=O)C1 |  | > 100 µM (inactive) | > 100 | > 100 µM (inactive) | > 100 µM (inactive) | > 100 µM (inactive) | > 100 µM (inactive) | > 100 µM (inactive) | > 100 µM (inactive) | > 100 µM (inactive) | > 100 µM (inactive) | > 100 µM (inactive) | > 100 µM (inactive) | > 100 µM (inactive) | > 100 µM (inactive) |  | > 100 µM (inactive) | > 100 µM (inactive) | > 100 µM (inactive) | > 100 µM (inactive)
